{
  "source": "patent US9669100B2",
  "about": "“Polymer support for the distribution of a naturally crystalline substance and production method” (priority 2013, dated 2017)",
  "key": {"[1]": {"assay": "Stability of the active solution (limpid, no recrystallisation)", "format": "physicochemical", "details": "ESTASOL/ARLASOLVE DMI plus refined coconut oil; after stirring (30 min Example 1, 20 min Example 3)", "protocol": "In a 1 liter beaker, the following products are successively introduce with stirring:\nAnd then introduce by sprinkling while still stirring:\nAfter completely dissolving, pour while still stirring:\n300 g refined coconut oil.\nIn a 1 liter beaker, the following are successively added under stirring:\n100 g refined coconut oil.\nAll is stirred for 20 minutes until the active solution becomes limpid."}, "[2]": {"assay": "Solubilisation of naturally crystalline substances in the solvent mixture (dibasic esters / dimethyl isosorbide)", "format": "physicochemical", "details": "solvent mixture solvent/cosolvent"}},
  "data": [
    {"smiles": "Cn1c(=O)c2c(ncn2C)n(C)c1=O", "note": "[Caffeine]", "values": [
      {"measurement": "state of the active solution after preparation", "setting": "[1]", "value": "does not recrystallise"}
    ]},
    {"smiles": "CC1(C)[C@H](C(=O)O[C@H](C#N)c2cccc(Oc3ccccc3)c2)[C@@H]1C=C(Br)Br", "note": "[Deltamethrin]", "values": [
      {"measurement": "maximum concentration possible without recrystallization in the active solution", "setting": "[2]; cold solution, even at low temperature", "value": "≤ 20", "unit": "% by weight"}
    ]},
    {"smiles": "CNC(=O)Oc1ccccc1OC(C)C", "note": "[Propoxur]", "values": [
      {"measurement": "concentration dissolved in a stable manner in the solvent mixture", "setting": "[2]", "value": "56 % by weight of solution"}
    ]}
  ]
}
